# Read-outs that look alike come from different tables or passages of the source.
# Legend:
# THP-1 = assay: CCK-8 assay, THP-1; type: cell-based; conditions: Homo sapiens, leukaemia, AML, CCK-8, 72 h
# Method: (§1) Cells were seeded in 96-well plates at a density of 8 × 10^3 per well and exposed to different concentrations of compounds for 72 h. Subsequently, 10 µL CCK8 solution was added to each well and co-incubated for another 3–4 h at 37 °C. The absorbance was determined at 450 nm. Data was calculated with GraphPad Prism5 software.[32]
# CCRF-CEM = assay: CCK-8 assay, CCRF-CEM; type: cell-based; conditions: Homo sapiens, leukaemia, ALL, CCK-8, 72 h
# Method: as §1
# HuT 78 = assay: CCK-8 assay, HuT 78; type: cell-based; conditions: Homo sapiens, HuT78; leukaemia, ALL; CCK-8, 72 h
# Method: as §1
# leukaemia cell lines = assay: Anti-proliferation against a variety of leukaemia cell lines (CCK-8); type: cell-based; conditions: seven leukaemia cell lines; read-out: IC50 against a variety of leukaemia cell lines (range over panel)
# Method: as §1
# K562 cells [1] = assay: Cell apoptosis assay by flow cytometry (Annexin V-PE/PI); type: cell-based; conditions: K562, 48 h; after treatment of 29e (control 5.95%); equals Q2+Q3 at 200 nM
# Method: K562 cells at 8х10^4 cells/well were seeded in 12-well cell culture plates overnight and the cultured cells were incubated with a dose range of compounds 29e for 48 h. The treated or untreated cells were washed twice with PBS and stained by Annexin V-PE and PI for 15 min without light exposure according to the manufacturer’s protocol. Apoptosis was quantified using a flow cytometer ((Becton, Dickinson and Company, USA).[32]
# HUVEC [2] = assay: Toxicity on HUVEC; type: cell-based, human
# [3] = Kinetic solubility by nephelometry; type: physicochemical; conditions: kinetic from dmso stock, 1% DMSO
# Method: Calculated physicochemical parameters. Physicochemical properties were calculated using the ChemAxon chemistry cartridge via JChem for Excel software (version 16.4.11). Compound 29e in DMSO was spiked into either pH 6.5 phosphate buffer or 0.01 M HCl (approximately pH 2.0) with the final DMSO concentration being 1%. After 30 min had elapsed, samples were analysed via Nephelometry to determine a solubility range.
# [4] = In vitro metabolic stability, mouse liver microsomes; type: in vitro ADME; conditions: 0.4 mg/mL protein
# Method: The metabolic stability assay was performed by incubating the test compound in mouse or human liver microsomes (XenoTech, lot no. 1510256) at 37 °C and a protein concentration of 0.4 mg/mL. Microsomal incubations were performed at a substrate concentration of 0.5 µM. Data analysis. Species scaling factors were used to convert the in vitro CLint(mL/min/mg) to an in vivo CLint(mL/min/kg).
# K562 cells [5] = assay: Immunofluorescence staining of microtubule network; type: cell-based; conditions: K562, 0.1 uM and 0.3 uM; Figure 4F
# HUVEC [6] = assay: Transwell cell invasion experiment; type: cell-based, human; conditions: 0.1 µM to 10 µM, concentration-dependent
# Method: The upper surface of Transwell membrane was precoated with 40 µL Matrigel gel and incubated for 45 min at 37 °C for gelling. Then, cells were trypsinized and seeded at 6х10^4 per upper chamber, and cultured in 1% foetal bovine serum medium containing different concentrations of compounds. The chamber was then placed in a 24-well plate to which 10% FBS had been added. After 48 h incubation at 37 °C, both chambers were washed with PBS three times, and then fixed with 4% paraformaldehyde for 15 min, followed by staining with crystal violet. The non-invasive cells on the upper surface membrane were wiped with cotton swabs. The image of the cells on the bottom face was recorded and quantified under an inverted microscope. The results were the means calculated from three replicates of each experiment.[37]
# HUVEC [7] = assay: Wound healing migration assay; type: cell-based, human; conditions: 0.1, 1 and 10 µM
# [8] = Preliminary cytotoxicity study on zebrafish embryos; conditions: zebrafish, in vivo
# zebrafish embryos = assay: as above; conditions: at the concentration of 6 µM
structure (smiles),measurement,setting,value
"COc1cc(C(=O)/C=C/c2cn(S(=O)(=O)c3ccccc3)c3ccccc23)cc(OC)c1OC [Compound 29e, (E)-3–(1-(Phenylsulfonyl)-1H-indol-3-yl)-1–(3,4,5-trimethoxyphenyl)prop-2-en-1-one]",IC50,THP-1,0.37 ± 0.03 µM
same,IC50,CCRF-CEM,0.84 ± 0.08 µM
same,IC50,HuT 78,0.26 ± 0.11 µM
same,IC50,leukaemia cell lines,0.09 to 1.22 µM
same,percentage of apoptotic cell,K562 cells [1],45.81%
same,IC50,"HUVEC [2]; Homo sapiens, HUVEC",58.6 µM
same,toxicity on HUVEC,HUVEC [2]; at the concentration of 10 µM,did not cause any toxicity on HUVEC
same,solubility at 30 min,"[3]; 0.01 M HCl, pH 2, simulated gastric fluid, 0.01 M HCl, read-out: Solubility pH 2.0",25 to 50 µg/mL
same,solubility at 30 min,"[3]; phosphate buffer, pH 6.5, aqueous buffer, phosphate buffer, read-out: Solubility pH 6.5",≤ 150 µg/mL
same,microsomal CLint at 0.5 µM,[4],77 µL/min/mg
same,half-life at 0.5 µM,"[4]; 37 °C, read-out: Degradation half-life Mouse",1 h
same,Effect on cellular microtubule network,K562 cells [5],conspicuous disorder for the microtubule network
same,HUVEC invasion (Transwell),HUVEC [6],the number of HUVEC invasion decreased
same,HUVEC wound closure / migration,HUVEC [7],markedly decreased the closure of wound scratching
same,IC50,[8],44.6 µM
same,toxicity on zebrafish embryos,zebrafish embryos,did not cause the toxicity

# From PMC8820799, “Angiogenesis and anti-leukaemia activity of novel indole derivatives as potent colchicine binding site inhibitors” (Journal of Enzyme Inhibition and Medicinal Chemistry, 2022)
